Test results reported in a melting point compilation (Tetko et al.; mined from patent text by program, amines drawn as free bases though some values may be those of a salt).

| melting point [°C] | Structure (SMILES) |
| --- | --- |
| 179 to 180 | CC(c1ccc(-c2ccccc2)c(F)c1)c1csc(NC(=O)C(N)=O)n1 (configuration not stated) |
| 54 to 57 | CCCCN(C(=O)C(C)C)c1nnc(C)s1 |
| 99 to 100 | CN(O)C(=O)NCCc1ccc2c(c1)OCO2 |
| 143 to 146 | CC(C)=C1CCCP1(=O)c1ccccc1 (configuration not stated) |
| 112 to 113 | COc1ccc2c3c(c(=O)oc2c1)CN(CCN1CC2CCC1CC2)CC3 |
| 174 to 176 | COc1ccc(-c2cccc3c2C2(COc4cc5c(cc42)OCO5)C(=O)N3Cc2ccc(C(F)(F)F)o2)cn1 (configuration not stated) |
| 155 to 156 | COc1cccc(-c2n[nH]c(-c3ccccc3CO)n2)c1 |
| 177 to 178 | NC(=O)c1c(Cl)c(-c2ccccc2)n2c1CN(S(=O)(=O)c1ccc(F)cc1)CC2 |
| 189 to 191 | CC(C)N1CCNC(=O)c2ccc(Nc3ncc(Cl)c(N[C@@H]4CCCC[C@H]4NS(C)(=O)=O)n3)cc21 |
| 40 to 43 | CN(C)S(=O)(=O)c1ccc(F)cc1 |
| 144 to 156 | CC(=Nc1ccc(O)cc1C)c1ccccc1O |
| 118 to 119 | N#CC1(c2cccs2)CCC(=O)CC1 |
| 175 to 178 | O=C1C(=CO)c2ccccc2N1c1cccc(Cl)c1 |
| 124 to 125 | COC=C(C(=O)OC)c1csc2ccc(CBr)cc12 |
| 96 to 97 | CCN(CC)C(=O)n1ccc(S(=O)(=O)c2cc(Cl)ccc2C)n1 |
| 194 to 196 | Clc1ccc2c(c1)Nc1cc(Cl)ccc1OCO2 |
| 115 to 117 | CC(=O)N1CCc2cc(CC(C)Br)cc(C#N)c21 (configuration not stated) |
| 101 to 102 | CC1(C)N=C(c2ccccc2)CC1c1ccccn1 (configuration not stated) |
| 154 to 155 | O=C1CCCC1c1ccc(Cl)cc1 (configuration not stated) |
| 123 to 124 | N#CCCNC(=O)c1cccc(-c2cccc3sc(Cc4ccc(F)c(F)c4)cc23)c1 |

| melting point [°C] | Structure (SMILES) |
| --- | --- |
| 102 to 103 | COc1ccc(C2=NN(CCCCBr)C(=O)[C@H]3CC=CC[C@@H]23)cc1OC (relative stereo) |
| 264 to 267 | CC1(C)CC(=O)Nc2cc3nc(-c4cc5ccccc5[nH]4)[nH]c3cc21 |
| 283 to 285 | Clc1ccc2[nH]cc([C@H]3CC[C@@H](N4CCN(c5cccc6[nH]ccc56)CC4)CC3)c2c1 |
| 188 to 190 | CC1(CC2CCCC2)Cc2cc(O)c(Cl)c(Cl)c2C1=O (configuration not stated) |
| 178 to 180 | Cc1cnc(N)c2nc(C)n(CC(C)C)c12 |
| 119 to 121 | COc1ccc(C)cc1NC(=O)Nc1ccc2c(c1)CCN(C(=O)Nc1ccc(OCC(O)CO)cc1Cl)C2 (configuration not stated) |
| 215 to 217 | Cc1cccc2nnc(-c3ccccc3)c(O)c12 |
| 161 to 163 | Cn1nc(-c2ccccc2)c(C=Cc2ccccc2C(=O)O)c1Cl |
| 148 to 149 | CC1OP(=O)(O)c2ccccc21 (configuration not stated) |
| 145 to 147 | CCOc1ccc2c(c1)nc1n2CC(c2ccccn2)S1=O (configuration not stated) |
| 254 to 255 | O=C1CCC(=O)N1Cc1nc2sc3c(c2c(-c2ccc(Cl)cc2)c1Cl)CCN(Cc1ccccc1)C3 |
| 195 to 198 | NC(=O)c1nc(-c2ccc(Cl)cc2Cl)c(-c2ccc(Cl)cc2)s1 |
| 188 to 189 | Cn1cc(OS(C)(=O)=O)c(=O)c2cc(F)ccc21 |
| 60 to 62 | CCCCCCCCCCC/C=C\c1ccc(C=CC(=O)OC)cc1 |
| 156 to 158 | CSC(C)(C)C(NS(=O)(=O)c1ccc(Oc2ccccc2)cc1)C(=O)O (configuration not stated) |
| > 300 | Nc1c(Cl)cc2nc(O)c(O)nc2c1[N+](=O)[O-] |
| 92 | CCN(CC)C(=O)c1cc2ccccc2c(-c2cccc(F)c2)n1 |
| 163 to 166 | O=C1NCCN1C1CCN(CC(O)COc2cccnc2Cl)CC1 (configuration not stated) |
| 95 to 97 | CN1C(=O)CSC=C1c1ccccc1 |

| Structure (SMILES) | melting point [°C] |
| --- | --- |
| NC(=O)c1cccc2c1OC(CN1CC=C(c3c[nH]c4ccc(F)cc34)CC1)CO2 (configuration not stated) | 195 to 197 |
| CN1[C@@H]2CC[C@H]1[C@H](CO)[C@H](c1ccc(Cl)c(Cl)c1)C2 | 81 to 86 |
| CC12CC(=O)C3C(CCC4CC(O)CCC43C)C1CCC2C#N (configuration not stated) | 190 to 192 |
